Experimental data published in PubChem BioAssay (NCI).
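Tested at 5 concentrations; 48 h exposure; 96-well plates; endpoints linearly interpolated, else capped at highest concentration. Here, GI50 denotes the concentration required for 50% inhibition of growth. TGI: concentration producing complete growth inhibition.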

Key:
Test in all cases: inhibition of tumour cell growth, NCI panel, 48 h
SF-295 CNS = tested on: SF-295 CNS
A498 renal = tested on: A498 renal
SW-620 colon = tested on: SW-620 colon
ACHN renal = tested on: ACHN renal
NCI/ADR-RES ovarian = tested on: NCI/ADR-RES ovarian
SK-MEL-2 melanoma = tested on: SK-MEL-2 melanoma
MDA-MB-231 breast = tested on: MDA-MB-231 breast
HOP-62 NSCLC = tested on: HOP-62 NSCLC
SN12C renal = tested on: SN12C renal
HCC-2998 colon = tested on: HCC-2998 colon
SK-OV-3 ovarian = tested on: SK-OV-3 ovarian
T-47D breast = tested on: T-47D breast
SF-268 CNS = tested on: SF-268 CNS
MCF7 breast = tested on: MCF7 breast
NCI-H226 lung = tested on: NCI-H226 lung
CAKI-1 renal = tested on: CAKI-1 renal
TK-10 renal = tested on: TK-10 renal
COLO 205 colon = tested on: COLO 205 colon
NCI-H23 lung = tested on: NCI-H23 lung
786-0 renal = tested on: 786-0 renal
NCI-H460 lung = tested on: NCI-H460 lung
MDA-MB-435 = tested on: MDA-MB-435
UACC-62 melanoma = tested on: UACC-62 melanoma
SK-MEL-28 melanoma = tested on: SK-MEL-28 melanoma
KM12 colon = tested on: KM12 colon
BT-549 breast = tested on: BT-549 breast
A549 NSCLC = tested on: A549 NSCLC
NCI-H522 lung = tested on: NCI-H522 lung
RXF 393 renal = tested on: RXF 393 renal
SNB-19 CNS = tested on: SNB-19 CNS
UACC-257 melanoma = tested on: UACC-257 melanoma
IGROV1 ovarian = tested on: IGROV1 ovarian
M14 melanoma = tested on: M14 melanoma
U251 CNS = tested on: U251 CNS
OVCAR-5 ovarian = tested on: OVCAR-5 ovarian
SK-MEL-5 melanoma = tested on: SK-MEL-5 melanoma
HCT-116 colon = tested on: HCT-116 colon
PC-3 prostate = tested on: PC-3 prostate
HT29 colon = tested on: HT29 colon
SF-539 CNS = tested on: SF-539 CNS
OVCAR-3 ovarian = tested on: OVCAR-3 ovarian
MALME-3M melanoma = tested on: MALME-3M melanoma
SR leukemia = tested on: SR leukemia
OVCAR-4 ovarian = tested on: OVCAR-4 ovarian
LOX IMVI melanoma = tested on: LOX IMVI melanoma
RPMI-8226 leukemia = tested on: RPMI-8226 leukemia
EKVX NSCLC = tested on: EKVX NSCLC
HCT-15 colon = tested on: HCT-15 colon
DU-145 prostate = tested on: DU-145 prostate
UO-31 renal = tested on: UO-31 renal
OVCAR-8 ovarian = tested on: OVCAR-8 ovarian
SNB-75 CNS = tested on: SNB-75 CNS
HL-60(TB) leukemia = tested on: HL-60(TB) leukemia

CN(C)CCCCNc1ccc(NCCCCN(C)C)c2c1C(=O)c1c(O)ccc(O)c1C2=O
GI50 (SF-295 CNS): 1.75 µM | TGI (SF-295 CNS): 3.3 µM | GI50 (A498 renal): 13.5 µM | TGI (A498 renal): 26.3 µM | GI50 (SW-620 colon): 1.51 µM | TGI (SW-620 colon): 2.83 µM | GI50 (ACHN renal): 1.61 µM | TGI (ACHN renal): 2.96 µM | GI50 (NCI/ADR-RES ovarian): 1.62 µM | TGI (NCI/ADR-RES ovarian): 3.08 µM | GI50 (SK-MEL-2 melanoma): 18 µM | TGI (SK-MEL-2 melanoma): 32.5 µM | GI50 (MDA-MB-231 breast): 1.47 µM | TGI (MDA-MB-231 breast): 2.78 µM | GI50 (HOP-62 NSCLC): 1.7 µM | TGI (HOP-62 NSCLC): 3.13 µM | GI50 (SN12C renal): 13.1 µM | TGI (SN12C renal): 25.8 µM | GI50 (HCC-2998 colon): 1.58 µM | TGI (HCC-2998 colon): 2.93 µM | GI50 (SK-OV-3 ovarian): 3.06 µM | TGI (SK-OV-3 ovarian): 9.8 µM | GI50 (T-47D breast): 18.5 µM | TGI (T-47D breast): 33.2 µM | GI50 (SF-268 CNS): 10.4 µM | TGI (SF-268 CNS): 22.1 µM | GI50 (MCF7 breast): 1.59 µM | TGI (MCF7 breast): 2.99 µM | GI50 (NCI-H226 lung): 14.9 µM | TGI (NCI-H226 lung): 28.1 µM | GI50 (CAKI-1 renal): 8.15 µM | TGI (CAKI-1 renal): 21.6 µM | GI50 (TK-10 renal): 13.3 µM | TGI (TK-10 renal): 26.4 µM | GI50 (COLO 205 colon): 13.6 µM | TGI (COLO 205 colon): 28.6 µM | GI50 (NCI-H23 lung): 1.63 µM | TGI (NCI-H23 lung): 2.98 µM | GI50 (786-0 renal): 1.76 µM | TGI (786-0 renal): 3.14 µM | GI50 (NCI-H460 lung): 1.59 µM | TGI (NCI-H460 lung): 2.94 µM | GI50 (MDA-MB-435): 13.3 µM | TGI (MDA-MB-435): 26.1 µM | GI50 (UACC-62 melanoma): 15.3 µM | TGI (UACC-62 melanoma): 29.1 µM | GI50 (SK-MEL-28 melanoma): 17.8 µM | TGI (SK-MEL-28 melanoma): 31.7 µM | GI50 (KM12 colon): 1.51 µM | TGI (KM12 colon): 2.84 µM | GI50 (BT-549 breast): 16 µM | TGI (BT-549 breast): 29.5 µM | GI50 (A549 NSCLC): 1.57 µM | TGI (A549 NSCLC): 2.94 µM | GI50 (NCI-H522 lung): 1.77 µM | TGI (NCI-H522 lung): 3.58 µM | GI50 (RXF 393 renal): 1.75 µM | TGI (RXF 393 renal): 11.2 µM | GI50 (SNB-19 CNS): 13.2 µM | TGI (SNB-19 CNS): 26 µM | GI50 (UACC-257 melanoma): 18.4 µM | TGI (UACC-257 melanoma): 32.3 µM | GI50 (IGROV1 ovarian): 1.52 µM | TGI (IGROV1 ovarian): 3.03 µM | GI50 (M14 melanoma): 1.81 µM | TGI (M14 melanoma): 3.2 µM | GI50 (U251 CNS): 1.69 µM | TGI (U251 CNS): 3.08 µM | GI50 (OVCAR-5 ovarian): 1.66 µM | TGI (OVCAR-5 ovarian): 3.14 µM | GI50 (SK-MEL-5 melanoma): 13.5 µM | TGI (SK-MEL-5 melanoma): 26.3 µM | GI50 (HCT-116 colon): 1.51 µM | TGI (HCT-116 colon): 2.83 µM | GI50 (PC-3 prostate): 1.94 µM | TGI (PC-3 prostate): 3.64 µM | GI50 (HT29 colon): 1.19 µM | TGI (HT29 colon): 2.86 µM | GI50 (SF-539 CNS): 10.9 µM | TGI (SF-539 CNS): 24.6 µM | GI50 (OVCAR-3 ovarian): 1.62 µM | TGI (OVCAR-3 ovarian): 2.97 µM | GI50 (MALME-3M melanoma): 18.3 µM | TGI (MALME-3M melanoma): 33.5 µM | GI50 (SR leukemia): 1.72 µM | TGI (SR leukemia): 5.01 µM | GI50 (OVCAR-4 ovarian): 1.42 µM | TGI (OVCAR-4 ovarian): 2.76 µM | GI50 (LOX IMVI melanoma): 1.42 µM | TGI (LOX IMVI melanoma): 2.73 µM | GI50 (RPMI-8226 leukemia): 2.54 µM | TGI (RPMI-8226 leukemia): 6.49 µM | GI50 (EKVX NSCLC): 1.81 µM | TGI (EKVX NSCLC): 3.82 µM | GI50 (HCT-15 colon): 1.55 µM | TGI (HCT-15 colon): 2.93 µM | GI50 (DU-145 prostate): 1.29 µM | TGI (DU-145 prostate): 2.55 µM | GI50 (UO-31 renal): 1.43 µM | TGI (UO-31 renal): 2.93 µM | GI50 (OVCAR-8 ovarian): 1.55 µM | TGI (OVCAR-8 ovarian): 2.94 µM | GI50 (SNB-75 CNS): 12.8 µM | TGI (SNB-75 CNS): 25.3 µM | GI50 (HL-60(TB) leukemia): 1.73 µM | TGI (HL-60(TB) leukemia): 4.12 µM
